The text below walks through data of ChEMBL document CHEMBL3991601, “The target landscape of clinical kinase drugs” (Science, 2017).

The Kd is the constant that tells how readily two partners part at equilibrium.

Active and inactive are the calls of the source. Rule as the data show it, for most assays here: actives have a measured Kd and inactives only a lower limit.

In assay [1] the target is Putative heat shock protein HSP 90-beta 2 (Homo sapiens, UniProt Q58FF8).
The target in assay [2] is T1, Serine/threonine-protein kinase A-Raf (Homo sapiens, UniProt P10398).
T1 sequence (P10398 whole entry): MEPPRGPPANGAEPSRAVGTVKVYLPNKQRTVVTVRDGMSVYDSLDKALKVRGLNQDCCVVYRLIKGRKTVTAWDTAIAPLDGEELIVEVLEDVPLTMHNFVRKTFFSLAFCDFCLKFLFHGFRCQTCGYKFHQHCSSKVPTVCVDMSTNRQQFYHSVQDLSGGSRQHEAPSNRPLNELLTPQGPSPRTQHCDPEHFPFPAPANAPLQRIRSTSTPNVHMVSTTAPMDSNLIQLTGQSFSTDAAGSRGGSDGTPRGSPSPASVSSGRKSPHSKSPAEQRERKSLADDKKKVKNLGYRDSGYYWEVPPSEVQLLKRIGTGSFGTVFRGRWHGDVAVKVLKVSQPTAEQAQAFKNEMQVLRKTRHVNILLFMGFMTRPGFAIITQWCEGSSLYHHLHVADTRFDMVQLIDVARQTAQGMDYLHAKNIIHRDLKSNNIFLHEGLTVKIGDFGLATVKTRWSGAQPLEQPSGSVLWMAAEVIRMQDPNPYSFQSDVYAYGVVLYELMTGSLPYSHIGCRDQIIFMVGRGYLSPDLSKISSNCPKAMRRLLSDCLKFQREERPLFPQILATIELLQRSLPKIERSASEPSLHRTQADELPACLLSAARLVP

The target of assay [3] is Mitogen-activated protein kinase kinase kinase 1 (Homo sapiens, UniProt Q13233).
Sequence of Mitogen-activated protein kinase kinase kinase 1 (Q13233 whole entry): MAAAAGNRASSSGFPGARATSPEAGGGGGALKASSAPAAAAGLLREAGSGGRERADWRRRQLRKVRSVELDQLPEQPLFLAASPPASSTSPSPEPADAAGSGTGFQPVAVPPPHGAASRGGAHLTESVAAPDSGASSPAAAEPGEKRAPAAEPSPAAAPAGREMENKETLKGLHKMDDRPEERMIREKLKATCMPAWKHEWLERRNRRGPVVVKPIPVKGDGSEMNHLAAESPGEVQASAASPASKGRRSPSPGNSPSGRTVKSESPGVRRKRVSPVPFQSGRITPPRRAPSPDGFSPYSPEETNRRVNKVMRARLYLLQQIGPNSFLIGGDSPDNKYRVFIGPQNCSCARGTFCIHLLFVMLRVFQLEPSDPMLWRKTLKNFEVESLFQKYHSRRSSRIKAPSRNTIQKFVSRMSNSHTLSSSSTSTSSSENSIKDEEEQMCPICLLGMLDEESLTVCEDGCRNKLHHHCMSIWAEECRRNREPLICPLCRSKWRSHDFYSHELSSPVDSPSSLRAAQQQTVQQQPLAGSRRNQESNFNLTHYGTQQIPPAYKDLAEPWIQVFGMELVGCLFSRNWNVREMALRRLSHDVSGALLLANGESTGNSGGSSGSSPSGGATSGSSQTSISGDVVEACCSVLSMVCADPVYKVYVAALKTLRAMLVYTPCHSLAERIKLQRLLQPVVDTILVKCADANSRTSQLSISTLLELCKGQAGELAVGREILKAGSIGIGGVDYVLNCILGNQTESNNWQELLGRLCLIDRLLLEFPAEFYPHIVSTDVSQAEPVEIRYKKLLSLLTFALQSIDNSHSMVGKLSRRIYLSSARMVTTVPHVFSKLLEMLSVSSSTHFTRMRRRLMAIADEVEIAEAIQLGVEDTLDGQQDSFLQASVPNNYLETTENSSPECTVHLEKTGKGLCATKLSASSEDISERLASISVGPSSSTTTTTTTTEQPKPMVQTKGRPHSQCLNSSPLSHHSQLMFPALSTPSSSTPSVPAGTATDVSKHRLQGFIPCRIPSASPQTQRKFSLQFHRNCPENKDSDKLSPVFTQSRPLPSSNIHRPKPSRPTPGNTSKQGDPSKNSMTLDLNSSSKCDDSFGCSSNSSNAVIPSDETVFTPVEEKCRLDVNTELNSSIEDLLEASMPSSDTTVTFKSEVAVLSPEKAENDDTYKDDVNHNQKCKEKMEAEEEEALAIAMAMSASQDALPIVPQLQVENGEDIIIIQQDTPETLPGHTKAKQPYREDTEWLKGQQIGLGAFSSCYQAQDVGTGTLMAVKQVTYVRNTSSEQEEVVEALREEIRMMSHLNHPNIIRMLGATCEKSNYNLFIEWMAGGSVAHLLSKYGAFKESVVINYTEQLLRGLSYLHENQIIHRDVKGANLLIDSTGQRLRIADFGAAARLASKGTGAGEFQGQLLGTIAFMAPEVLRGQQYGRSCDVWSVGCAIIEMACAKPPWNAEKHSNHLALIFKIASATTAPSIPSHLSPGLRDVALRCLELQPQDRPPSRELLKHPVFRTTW
Assay [4] addresses Ribosomal protein S6 kinase alpha-4 (Homo sapiens, UniProt O75676).
The target in assay [5] is T2, Serine/threonine-protein kinase TAO1 (Homo sapiens, UniProt Q7L7X3).
T2 sequence (Q7L7X3 whole entry): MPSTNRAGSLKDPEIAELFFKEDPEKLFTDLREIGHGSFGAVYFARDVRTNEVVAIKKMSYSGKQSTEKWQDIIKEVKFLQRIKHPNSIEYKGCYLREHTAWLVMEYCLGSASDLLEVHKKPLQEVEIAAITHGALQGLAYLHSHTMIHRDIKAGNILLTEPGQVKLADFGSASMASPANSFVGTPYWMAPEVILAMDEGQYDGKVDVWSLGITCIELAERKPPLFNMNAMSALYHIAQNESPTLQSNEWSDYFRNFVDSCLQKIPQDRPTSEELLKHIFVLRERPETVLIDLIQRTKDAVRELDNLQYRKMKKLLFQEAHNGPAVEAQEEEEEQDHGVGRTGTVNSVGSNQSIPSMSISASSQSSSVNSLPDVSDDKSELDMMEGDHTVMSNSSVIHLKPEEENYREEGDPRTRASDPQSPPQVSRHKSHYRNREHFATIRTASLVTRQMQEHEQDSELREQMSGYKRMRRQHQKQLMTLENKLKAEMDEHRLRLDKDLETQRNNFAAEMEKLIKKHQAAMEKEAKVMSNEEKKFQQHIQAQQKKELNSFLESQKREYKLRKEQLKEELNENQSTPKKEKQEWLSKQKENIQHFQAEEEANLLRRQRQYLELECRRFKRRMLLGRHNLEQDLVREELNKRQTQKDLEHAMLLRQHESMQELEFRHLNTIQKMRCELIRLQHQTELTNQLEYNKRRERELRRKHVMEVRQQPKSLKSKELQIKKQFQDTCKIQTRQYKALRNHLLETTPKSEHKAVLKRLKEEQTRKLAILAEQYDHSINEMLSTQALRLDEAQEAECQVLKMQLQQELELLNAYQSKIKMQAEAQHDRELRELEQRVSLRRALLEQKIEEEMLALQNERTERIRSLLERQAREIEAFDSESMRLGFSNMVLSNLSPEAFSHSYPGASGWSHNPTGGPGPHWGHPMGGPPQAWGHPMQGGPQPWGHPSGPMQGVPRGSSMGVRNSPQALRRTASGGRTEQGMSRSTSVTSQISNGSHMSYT

Assay [6] addresses Tyrosine-protein kinase Fyn (Homo sapiens, UniProt P06241).
The target in assay [7] is GTP-binding nuclear protein Ran (Homo sapiens, UniProt P62826).
The target of assay [8] is 5'-AMP-activated protein kinase catalytic subunit alpha-1 (Homo sapiens, UniProt Q13131).
Sequence of 5'-AMP-activated protein kinase catalytic subunit alpha-1 (Q13131 whole entry): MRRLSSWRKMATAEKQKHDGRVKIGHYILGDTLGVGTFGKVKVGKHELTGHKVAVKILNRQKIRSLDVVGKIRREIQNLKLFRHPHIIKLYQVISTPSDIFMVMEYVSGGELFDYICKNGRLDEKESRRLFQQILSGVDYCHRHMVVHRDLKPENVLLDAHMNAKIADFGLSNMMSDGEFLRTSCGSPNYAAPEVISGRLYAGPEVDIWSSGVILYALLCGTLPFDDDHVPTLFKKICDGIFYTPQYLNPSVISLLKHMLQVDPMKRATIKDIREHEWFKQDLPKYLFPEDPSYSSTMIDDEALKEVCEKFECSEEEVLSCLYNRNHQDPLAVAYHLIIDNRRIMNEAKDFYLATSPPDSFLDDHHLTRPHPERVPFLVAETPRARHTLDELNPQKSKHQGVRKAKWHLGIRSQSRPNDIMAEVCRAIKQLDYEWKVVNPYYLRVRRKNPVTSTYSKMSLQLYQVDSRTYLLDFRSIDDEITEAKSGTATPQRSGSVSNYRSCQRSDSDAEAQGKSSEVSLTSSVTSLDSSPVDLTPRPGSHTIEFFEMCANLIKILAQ
Assay [9] addresses cAMP-dependent protein kinase catalytic subunit alpha (Homo sapiens, UniProt P17612).
For assay [10], the target named is Tyrosine-protein kinase CSK (Homo sapiens, UniProt P41240).
Sequence of Tyrosine-protein kinase CSK (P41240 whole entry): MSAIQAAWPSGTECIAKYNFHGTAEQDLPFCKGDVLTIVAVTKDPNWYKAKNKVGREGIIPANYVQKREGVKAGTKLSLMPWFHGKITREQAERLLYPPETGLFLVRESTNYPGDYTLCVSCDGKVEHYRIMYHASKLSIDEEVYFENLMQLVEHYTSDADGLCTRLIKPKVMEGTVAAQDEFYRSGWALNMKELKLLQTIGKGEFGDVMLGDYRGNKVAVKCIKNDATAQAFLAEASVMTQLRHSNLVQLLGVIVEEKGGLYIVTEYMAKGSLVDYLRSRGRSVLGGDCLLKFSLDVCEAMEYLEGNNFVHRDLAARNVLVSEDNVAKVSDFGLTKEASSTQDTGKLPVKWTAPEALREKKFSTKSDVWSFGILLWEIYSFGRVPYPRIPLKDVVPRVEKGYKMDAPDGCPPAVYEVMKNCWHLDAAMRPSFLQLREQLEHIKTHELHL
In another assay the target is Deoxycytidine kinase (Homo sapiens, UniProt P27707).
Sequence of Deoxycytidine kinase (P27707 whole entry): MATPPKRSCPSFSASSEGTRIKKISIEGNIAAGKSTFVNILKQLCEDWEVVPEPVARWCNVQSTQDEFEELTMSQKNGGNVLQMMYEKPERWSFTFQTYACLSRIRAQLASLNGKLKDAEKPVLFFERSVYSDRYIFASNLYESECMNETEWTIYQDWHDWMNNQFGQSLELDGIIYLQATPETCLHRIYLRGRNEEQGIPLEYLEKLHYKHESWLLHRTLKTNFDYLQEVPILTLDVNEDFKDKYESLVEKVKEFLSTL
In assay [11] the target is TRAF2 and NCK-interacting protein kinase (Homo sapiens, UniProt Q9UKE5).
The next assay deals with T3, Activin receptor type-1B (Homo sapiens, UniProt P36896).
T3 sequence (P36896 whole entry): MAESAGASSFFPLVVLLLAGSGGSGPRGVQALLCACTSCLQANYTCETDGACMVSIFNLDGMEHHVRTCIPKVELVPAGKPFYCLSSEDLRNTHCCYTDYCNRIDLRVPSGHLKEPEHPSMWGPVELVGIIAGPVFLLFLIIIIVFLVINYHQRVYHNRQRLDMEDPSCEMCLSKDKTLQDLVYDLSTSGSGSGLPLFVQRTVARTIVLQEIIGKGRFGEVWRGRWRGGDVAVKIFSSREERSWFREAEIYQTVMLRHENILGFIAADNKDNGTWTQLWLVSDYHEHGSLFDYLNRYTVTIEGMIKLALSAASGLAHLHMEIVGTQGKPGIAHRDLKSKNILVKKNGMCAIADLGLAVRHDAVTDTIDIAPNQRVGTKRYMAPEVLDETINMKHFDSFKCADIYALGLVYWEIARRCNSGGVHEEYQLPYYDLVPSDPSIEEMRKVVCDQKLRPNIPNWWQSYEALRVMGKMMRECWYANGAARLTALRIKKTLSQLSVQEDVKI
Also: in the data inactive means no Kd found up to 30 µM.

Sequence of Ribosomal protein S6 kinase alpha-4 (O75676 whole entry): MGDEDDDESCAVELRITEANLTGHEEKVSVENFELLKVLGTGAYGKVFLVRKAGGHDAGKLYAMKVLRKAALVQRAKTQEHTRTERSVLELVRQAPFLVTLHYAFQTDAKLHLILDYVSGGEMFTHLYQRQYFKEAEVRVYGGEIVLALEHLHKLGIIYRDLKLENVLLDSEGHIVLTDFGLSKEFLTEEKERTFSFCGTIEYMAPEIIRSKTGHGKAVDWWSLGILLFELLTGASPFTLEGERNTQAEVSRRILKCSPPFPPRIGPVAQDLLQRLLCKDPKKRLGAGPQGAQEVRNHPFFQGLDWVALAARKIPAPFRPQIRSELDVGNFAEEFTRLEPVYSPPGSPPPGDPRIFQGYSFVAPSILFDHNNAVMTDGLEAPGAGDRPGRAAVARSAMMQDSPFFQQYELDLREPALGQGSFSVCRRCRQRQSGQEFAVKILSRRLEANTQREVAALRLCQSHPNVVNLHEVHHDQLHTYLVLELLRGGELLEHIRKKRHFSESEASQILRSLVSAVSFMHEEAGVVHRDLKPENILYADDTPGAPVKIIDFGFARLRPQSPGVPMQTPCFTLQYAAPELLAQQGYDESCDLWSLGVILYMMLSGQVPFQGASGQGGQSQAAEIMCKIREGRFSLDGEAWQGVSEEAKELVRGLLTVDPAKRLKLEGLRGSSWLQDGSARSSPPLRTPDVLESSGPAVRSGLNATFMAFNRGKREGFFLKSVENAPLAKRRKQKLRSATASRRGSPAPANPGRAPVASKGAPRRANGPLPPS
Sequence of Tyrosine-protein kinase Fyn (P06241 whole entry): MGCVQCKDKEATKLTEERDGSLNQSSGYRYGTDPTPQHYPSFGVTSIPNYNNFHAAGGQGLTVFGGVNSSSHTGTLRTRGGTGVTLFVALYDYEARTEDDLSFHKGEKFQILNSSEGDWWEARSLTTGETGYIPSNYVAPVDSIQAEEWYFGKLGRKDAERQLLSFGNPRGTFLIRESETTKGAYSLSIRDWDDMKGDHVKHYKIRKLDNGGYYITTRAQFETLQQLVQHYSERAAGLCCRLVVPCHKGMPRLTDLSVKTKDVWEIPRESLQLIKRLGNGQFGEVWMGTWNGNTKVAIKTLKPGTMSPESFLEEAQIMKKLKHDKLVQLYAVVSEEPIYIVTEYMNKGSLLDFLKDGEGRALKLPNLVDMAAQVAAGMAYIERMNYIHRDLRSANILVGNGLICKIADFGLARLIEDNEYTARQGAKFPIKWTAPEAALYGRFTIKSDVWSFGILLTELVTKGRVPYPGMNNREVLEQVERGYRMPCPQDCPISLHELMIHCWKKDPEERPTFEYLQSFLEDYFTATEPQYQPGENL
Sequence of Putative heat shock protein HSP 90-beta 2 (Q58FF8 whole entry): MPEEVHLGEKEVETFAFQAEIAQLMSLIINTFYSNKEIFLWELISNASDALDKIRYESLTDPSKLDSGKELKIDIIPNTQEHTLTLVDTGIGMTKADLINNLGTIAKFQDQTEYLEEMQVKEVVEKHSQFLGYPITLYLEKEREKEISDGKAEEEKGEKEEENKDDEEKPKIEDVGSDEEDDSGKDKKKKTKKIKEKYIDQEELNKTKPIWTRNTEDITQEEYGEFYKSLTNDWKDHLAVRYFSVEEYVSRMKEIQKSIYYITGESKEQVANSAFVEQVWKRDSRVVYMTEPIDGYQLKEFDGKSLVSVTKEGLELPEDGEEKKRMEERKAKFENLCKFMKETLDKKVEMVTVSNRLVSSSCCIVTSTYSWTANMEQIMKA

For `COc1cc(N2CCC(N3CCN(C)CC3)CC2)ccc1Nc1ncnc(Nc2ccccc2S(=O)(=O)C(C)C)n1` [ASP-3026], the Kd in [1] is > 30 µM (inactive); in assay [2], > 30 µM (inactive); in [3] it was > 30 µM (inactive); in assay [4] it was > 30 µM (inactive); in assay [5], > 30 µM (inactive); in [6] it was 1.53 µM (active). In addition, the Kd (in assay [7]; in [8]; in assay [9]; in assay [10]; on Deoxycytidine kinase; in [11]) was > 30 µM (inactive) each time. Also, on Activin receptor type-1B, the Kd is > 30 µM (inactive).

On to `CNC(=O)c1ccc(-c2cnc3ncc(Cc4ccc5ncccc5c4)n3n2)cc1F` [CAPMATINIB], for which the Kd in assay [1], in assay [2], in assay [3], in assay [4], in [5] and in assay [6] was > 30 µM (inactive) in each case. Further, the Kd (in assay [7]; in [8]; in [9]; in assay [10]; at Deoxycytidine kinase; in assay [11]) was > 30 µM (inactive) each time. In addition, the Kd on Activin receptor type-1B is > 30 µM (inactive).

Take `CNC(=O)c1ccc(C)c(-n2c(C)cc(OCc3ccc(F)cc3F)c(Br)c2=O)c1` [PH-797804]: the Kd in assay [1], in assay [2], in assay [3], in assay [4], in assay [5] and in assay [6] was > 30 µM (inactive) in each case. The Kd (in [7]; in assay [8]; in assay [9]; in assay [10]; on Deoxycytidine kinase; in [11]) was > 30 µM (inactive) each time. Besides, the Kd at Activin receptor type-1B is > 30 µM (inactive).

As for `C[C@@H](Nc1cc(F)cc(F)c1)c1cc(C(=O)N(C)C)cc2c(=O)cc(N3CCOCC3)oc12` [AZD-8186], the Kd in [1], in [2], in [3], in assay [4], in [5] and in assay [6] was > 30 µM (inactive) in each case. Further, the Kd (in assay [7]; in [8]; in [9]; in assay [10]; on Deoxycytidine kinase; in assay [11]) was > 30 µM (inactive) in each case. The Kd at Activin receptor type-1B was > 30 µM (inactive).

In the case of `CN1CCC(COc2cnc(-c3cccc(Cn4nc(-c5cccc(C#N)c5)ccc4=O)c3)nc2)CC1` [TEPOTINIB], the Kd in assay [1], in assay [2], in [3], in assay [4], in assay [5] and in [6] was > 30 µM (inactive) in each case. Further, the Kd (in assay [7]; in assay [8]; in assay [9]; in assay [10]; on Deoxycytidine kinase; in [11]) was > 30 µM (inactive) in each case. Moreover, the Kd on Activin receptor type-1B was > 30 µM (inactive).

`CCCS(=O)(=O)Nc1ccc(F)c(C(=O)c2c[nH]c3ncc(-c4ccc(Cl)cc4)cc23)c1F` [VEMURAFENIB]: the Kd is > 30 µM (inactive) in assay [1]; 2.14 µM (active) in [2]; > 30 µM (inactive) in [3]; > 30 µM (inactive) in assay [4]; > 30 µM (inactive) in [5]; > 30 µM (inactive) in assay [6]. Also, the Kd (in assay [7]; in [8]; in [9]; in [10]; at Deoxycytidine kinase; in [11]) was > 30 µM (inactive) each time. In addition, the Kd on Activin receptor type-1B is > 30 µM (inactive).

As for `N[C@@H]1CCCN(c2c(/C=C3\SC(=O)NC3=O)cccc2-c2ccccc2)C1`, the Kd in [1], in assay [2], in assay [3], in assay [4], in [5] and in [6] was > 30 µM (inactive) each time. For the same molecule, the Kd (in assay [7]; in assay [8]; in [9]; in assay [10]; at Deoxycytidine kinase; in assay [11]) was > 30 µM (inactive) each time. The Kd at Activin receptor type-1B was > 30 µM (inactive).

Consider `O=C(O)[C@]1(Cc2cccc(Nc3nccs3)n2)CC[C@@H](Oc2cccc(Cl)c2F)CC1` [MK-5108], for which the Kd in assay [1], in [2], in [3], in assay [4], in [5] and in assay [6] was > 30 µM (inactive) in each case. Moreover, the Kd (in assay [7]; in assay [8]; in assay [9]; in assay [10]; on Deoxycytidine kinase; in assay [11]) was > 30 µM (inactive) throughout. Also, the Kd on Activin receptor type-1B is 0.425 µM (active).

On to `COc1cc(OC)c(/C=C/S(=O)(=O)Cc2ccc(OC)c(NCC(=O)O)c2)c(OC)c1` [RIGOSERTIB], for which the Kd in assay [1], in assay [2], in assay [3], in [4], in [5] and in assay [6] was > 30 µM (inactive) in each case. The Kd (in assay [7]; in [8]; in assay [9]; in assay [10]; on Deoxycytidine kinase; in assay [11]) was > 30 µM (inactive) each time. Moreover, the Kd at Activin receptor type-1B is > 30 µM (inactive).
